The values that follow come from patent publication US8329726B2, “Inhibitors of VEGF receptor and HGF receptor signaling” (MethylGene Inc., priority 2005, dated 2012).

The target of one experiment is T1, VEGF receptor KDR (Homo sapiens, UniProt P35968).
T1 construct: made in house; host or cells: Sf9 cells (Spodoptera frugiperda), baculovirus
The experiment in a line: In vitro receptor tyrosine kinase assay (DELFIA), VEGF receptor KDR. Type of experiment: biochemical. The settings on record: read-out: VEGFR IC50. Here is the method:
In the case of VEGF receptor KDR a 1.6-kb cDNA corresponding to the catalytic domain of VEGFR2 or KDR (Genbank accession number AF035121 amino acid 806 to 1356) was cloned into the Pst I site of the pDEST20 Gateway vector (Invitrogen) for the production of a GST-tagged version of that enzyme.
The GST-VEGFR2806-1356 protein was expressed in […] (Spodoptera frugiperda) upon infection with recombinant baculovirus construct. […] Cell pellets were frozen at −80° C. until purification was performed.
The supernatant (cell extract) was used as starting material for purification of GST-VEGFR2806-1356.
The supernatant was loaded onto a GST-agarose column (Sigma) equilibrated with PBS pH 7.3. Following a four column volume (CV) wash with PBS pH 7.3+1% Triton X-100 and 4 CV wash with buffer B (50 mM Tris pH 8.0, 20% glycerol and 100 mM NaCl), bound proteins were step eluted with 5 CV of buffer B supplemented with 5 mM DTT and 15 mM glutathion. GST-VEGFR2806-1356 enriched fractions from this chromatography step were pooled based on U.V. trace i.e. fractions with high O.D.280. Final GST-VEGFR2806-1356 protein preparations concentrations were about 0.7 mg/ml with purity approximating 70%.
(§1) The coated plates were washed and stored at 4° C. […] After incubation, the kinase reactions were quenched with EDTA and the plates were washed.

A further experiment concerns DU145. The experiment in a line: DU145 scattering inhibition (HGF dependent scattering). The format is cell-based. As to conditions: Homo sapiens, DU-145; HGF dependent scattering, DU145 cells; read-out: DU145 SCATTERING INHIB IC50. An excerpt:
(§2) HGF has well known activity in terms of inducing scattering and migration (wound healing) (Wells et al., Cell Motil Cytoskeleton. 2005 November 62(3):180-94; Miura et al., Urology 2001 December 58(6):1064-9; Nishimura et al., Int J Urol. 1998 May 5(3):276-81; Wang et al., Mol Cancer Ther. 2003 November; 2(11):1085-92; and Christensen et al., Cancer Res. 2003 Nov. 1; 63(21):7345-55).

Experiment [1] concerns the target T2, recombinant human c-Met/HGF receptor (Homo sapiens, UniProt P08581).
T2 construct: His tag (pBlueBacHis2A vector); made in house; host or cells: Hi-5 cells (Trichoplusia ni), baculovirus
As to the kind of experiment: In vitro receptor tyrosine kinase assay (DELFIA), c-Met/HGF receptor. The format is biochemical. The settings on record: read-out: CMET IC50. Here is the method:
Cell pellets were frozen at −80° C. until purification was performed.
as §1

A further experiment relates to A549. As to the kind of experiment: A549 wound healing inhibition (HGF dependent migration). The settings on record: Homo sapiens, A549 cells, read-out: A549 WOUND HEALING INHIB IC50. The format is cell-based.
From the text: as §2

pIC50: −log10 of the molar value.

T1 sequence (P35968 806-1356): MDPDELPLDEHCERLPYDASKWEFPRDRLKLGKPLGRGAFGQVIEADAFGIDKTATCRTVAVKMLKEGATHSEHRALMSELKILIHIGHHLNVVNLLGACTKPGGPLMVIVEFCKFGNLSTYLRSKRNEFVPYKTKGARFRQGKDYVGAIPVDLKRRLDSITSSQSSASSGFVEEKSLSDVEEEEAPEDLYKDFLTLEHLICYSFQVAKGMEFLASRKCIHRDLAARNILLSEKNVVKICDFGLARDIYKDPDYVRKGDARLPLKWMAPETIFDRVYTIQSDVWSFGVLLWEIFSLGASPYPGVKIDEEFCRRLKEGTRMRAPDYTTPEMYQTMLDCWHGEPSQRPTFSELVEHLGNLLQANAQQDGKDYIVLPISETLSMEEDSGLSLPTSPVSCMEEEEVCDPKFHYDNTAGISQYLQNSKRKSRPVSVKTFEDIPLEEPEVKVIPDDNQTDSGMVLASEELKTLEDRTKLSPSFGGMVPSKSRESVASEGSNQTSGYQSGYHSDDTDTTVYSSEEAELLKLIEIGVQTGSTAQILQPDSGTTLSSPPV
T2 sequence (P08581 1078-1337): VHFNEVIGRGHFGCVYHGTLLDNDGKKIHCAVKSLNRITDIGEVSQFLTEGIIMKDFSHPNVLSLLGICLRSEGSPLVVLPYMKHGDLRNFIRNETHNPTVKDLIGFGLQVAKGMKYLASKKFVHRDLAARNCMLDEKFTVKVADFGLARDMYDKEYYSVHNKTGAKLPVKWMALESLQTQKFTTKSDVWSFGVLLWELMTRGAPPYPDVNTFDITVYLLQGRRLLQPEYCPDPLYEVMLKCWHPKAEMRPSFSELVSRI

As a reminder, the pIC50 is the IC50 on a negative log10 scale, so that one unit is a factor of ten. In the case of `Cn1ccnc1-c1cc2nccc(Oc3ccc(NC(=O)CC(=O)NC4CCNCC4)cc3F)c2s1`, the pIC50 on VEGF receptor KDR is under 6.30; in the experiment with DU145 it was under 5.00; in experiment [1], under 6.30; with A549, under 5.00.
In the case of `COc1ccccc1NC(=O)CC(=O)Nc1ccc(Oc2ccnc3cc(-c4ccc(OCCCN(C)C)c(OCCCN(C)C)c4)sc23)c(F)c1`, the pIC50 on VEGF receptor KDR was 6.60 to 7.30; in the experiment on DU145, under 5.00; in experiment [1] it was over 7.30; in the experiment with A549, under 5.00.
Consider `COc1ccccc1NC(=O)CC(=O)Nc1ccc(Oc2ccnc3cc(-c4cccc(OCCCNC(=N)N)c4)sc23)c(F)c1`, for which the pIC50 is under 6.30 on VEGF receptor KDR, under 5.00 in the experiment with DU145, 6.60 to 7.30 in experiment [1] and 5.30 to 6.00 in the experiment on A549.
Taken in the same sequence, the figures for `CN(C)CCCn1cnc(-c2cc3nccc(Oc4ccc(NC(=O)CC(=O)N(C)c5ccccc5)cc4F)c3s2)c1` were over 7.30, over 6.00, over 7.30 and over 6.00.
In the same order, the values of `CN(C)CC/C=C\c1cc2nccc(Oc3ccc(NC(=O)CC(=O)N(C)c4ccccc4)cc3F)c2s1` are 6.60 to 7.30, 5.30 to 6.00, 6.60 to 7.30 and 5.30 to 6.00.
In the same order, the values of `Cn1ccnc1-c1cc2nccc(Oc3ccc(NC(=O)CS(=O)(=O)c4ccc(F)cc4)cc3F)c2s1` are 6.60 to 7.30, 5.30 to 6.00, 6.30 to 6.60 and 5.30 to 6.00.
As to `CCn1cnc(-c2cc3nccc(Oc4ccc(NC(=O)CC(=O)N(C)c5ccccc5)cc4F)c3s2)c1`, the pIC50 is over 7.30 on VEGF receptor KDR, over 6.00 with DU145, over 7.30 in experiment [1] and over 6.00 with A549.
As to `O=C(Nc1ccc(Oc2ccnc3cc(-c4cn(CCCN5CCCC5)cn4)sc23)c(F)c1)C1(C(=O)Nc2ccccc2F)CC1`, the pIC50 at VEGF receptor KDR was over 7.30; in the experiment on DU145, over 6.00; in experiment [1] it was over 7.30; with A549, over 6.00.
Turning to `CN1CCN(Cc2ccc(-c3cc4nccc(Oc5ccc(NC(=O)CC(=O)Nc6ccccc6)cc5F)c4s3)cc2)CC1`, the pIC50 on VEGF receptor KDR is over 7.30; in the experiment with DU145, over 6.00; in experiment [1], over 7.30; in the experiment on A549 it was 5.30 to 6.00.
Take `CN(C(=O)CC(=O)Nc1ccc(Oc2ccnc3cc(-c4cn(CCCN5CCCC5)cn4)sc23)c(F)c1)c1ccccc1`: the pIC50 on VEGF receptor KDR was over 7.30; in the experiment with DU145, over 6.00; in experiment [1], over 7.30; in the experiment on A549 it was 5.30 to 6.00.
With `CN1CCN(CCN(C)Cc2ccc(-c3cc4nccc(Oc5ccc(NC(=O)CC(=O)N(C)c6ccccc6)cc5F)c4s3)cc2)CC1`, the pIC50 at VEGF receptor KDR is over 7.30; in the experiment on DU145 it was over 6.00; in experiment [1], over 7.30; in the experiment on A549 it was 5.30 to 6.00.
With `O=C(Nc1ccc(Oc2ccnc3cc(-c4cn(CCN5CCCC5)cn4)sc23)c(F)c1)C1(C(=O)Nc2ccccc2F)CC1`, the pIC50 at VEGF receptor KDR is over 7.30; in the experiment on DU145, over 6.00; in experiment [1], over 7.30; with A549, 5.30 to 6.00.
`COc1ccccc1NC(=O)C1(C(=O)Nc2ccc(Oc3ccnc4cc(-c5cn(CCN6CCCC6)cn5)sc34)c(F)c2)CC1`: the pIC50 on VEGF receptor KDR was over 7.30; in the experiment with DU145, over 6.00; in experiment [1] it was over 7.30; in the experiment with A549, over 6.00.
As to `CN(C(=O)CC(=O)Nc1ccc(Oc2ccnc3cc(-c4cn(C)cn4)sc23)c(F)c1)c1ccccc1F`, the pIC50 on VEGF receptor KDR is over 7.30; with DU145, 5.30 to 6.00; in experiment [1], 6.60 to 7.30; in the experiment with A549, over 6.00.
As to `CN1CCN(Cc2ccc(-c3cc4nccc(Oc5ccc(NC(=O)CC(=O)N(C)c6ccccc6)cc5F)c4s3)cc2)CC1`, the pIC50 is over 7.30 at VEGF receptor KDR, over 6.00 in the experiment on DU145, 6.60 to 7.30 in experiment [1] and 5.30 to 6.00 in the experiment with A549.
With `O=C(O)Cn1cnc(-c2cc3nccc(Oc4ccc(NC(=O)CC(=O)Nc5ccccc5)cc4F)c3s2)c1`, the pIC50 on VEGF receptor KDR was over 7.30; in the experiment with DU145, under 5.00; in experiment [1], over 7.30; in the experiment with A549, under 5.00.
Turning to `CC(C)n1cnc(-c2cc3nccc(Oc4ccc(NC(=O)CC(=O)Nc5nccs5)cc4F)c3s2)c1`, the pIC50 at VEGF receptor KDR is over 7.30; in the experiment with DU145, 5.30 to 6.00; in experiment [1] it was over 7.30; with A549, 5.30 to 6.00.
On to `CN1CC=C(c2cc3nccc(Oc4ccc(NC(=O)CC(=O)N(C)c5ccccc5)cc4F)c3s2)CC1`, for which the negative logarithm of the IC50 (pIC50) on VEGF receptor KDR was 6.60 to 7.30; in the experiment with DU145, 5.30 to 6.00; in experiment [1], over 7.30; with A549 it was 5.30 to 6.00.
Turning to `CC(C)n1cnc(-c2cc3nccc(Oc4ccc(NC(=O)C5CCN(c6ccccc6)C5=O)cc4F)c3s2)c1` (centres unmarked), the pIC50 on VEGF receptor KDR was over 7.30; in the experiment on DU145 it was over 6.00; in experiment [1], over 7.30; with A549, over 6.00.
As to `CC(C)n1cnc(-c2cc3nccc(Oc4ccc(NC(=O)C5CC(=O)N(c6ccccc6)C5)cc4F)c3s2)c1` (centres unmarked), the pIC50 at VEGF receptor KDR is under 6.30; in the experiment on DU145 it was under 5.00; in experiment [1], 6.30 to 6.60; in the experiment with A549, 5.30 to 6.00.
On to `CCn1cnc(-c2cc3nccc(Oc4ccc(NC(=O)CC(=O)Nc5ccccc5C(F)(F)F)cc4F)c3s2)c1`, for which the pIC50 is over 7.30 at VEGF receptor KDR, over 6.00 in the experiment with DU145, 6.60 to 7.30 in experiment [1] and 5.30 to 6.00 in the experiment on A549.
Regarding `CN(C)CCn1cnc(-c2cc3nccc(Oc4ccc(NC(=O)CC(=O)Nc5ccccc5)cc4F)c3s2)c1`, the pIC50 at VEGF receptor KDR was over 7.30; in the experiment on DU145, over 6.00; in experiment [1], over 7.30; in the experiment on A549 it was over 6.00.
Regarding `CN(c1ccc(NC(=O)C2(C(=O)Nc3ccccc3)CC2)cc1F)c1ccnc2ccsc12`, the pIC50 is under 6.30 on VEGF receptor KDR, 5.30 to 6.00 in the experiment on DU145, 6.30 to 6.60 in experiment [1] and 5.30 to 6.00 in the experiment on A549.
For `O=C(Cn1cnc(-c2cc3nccc(Oc4ccc(NC(=O)CC(=O)Nc5ccccc5)cc4F)c3s2)c1)NCCCN1CCCC1`, the pIC50 on VEGF receptor KDR is over 7.30; with DU145, 5.00 to 5.30; in experiment [1], over 7.30; in the experiment with A549, 5.30 to 6.00.
Consider `CCN(CC)CCn1cnc(-c2cc3nccc(Oc4ccc(NC(=O)CC(=O)N(C)c5ccccc5)cc4F)c3s2)c1`, for which the pIC50 at VEGF receptor KDR was over 7.30; in the experiment on DU145 it was over 6.00; in experiment [1], 6.60 to 7.30; with A549, over 6.00.
As to `CN1CCN(CCN(C)Cc2cccc(-c3cc4nccc(Oc5ccc(NC(=O)CC(=O)N(C)c6ccccc6)cc5F)c4s3)c2)CC1`, the pIC50 was over 7.30 on VEGF receptor KDR, over 6.00 in the experiment on DU145, 6.60 to 7.30 in experiment [1] and over 6.00 in the experiment with A549.
Turning to `O=C(Nc1ccc(Oc2ccnc3cc(-c4cn(CCCN5CCCC5)cn4)sc23)c(F)c1)C1CCN(c2ccccc2)C1=O` (centres unmarked), the pIC50 is over 7.30 at VEGF receptor KDR, over 6.00 in the experiment on DU145, over 7.30 in experiment [1] and over 6.00 in the experiment on A549.
As to `Cn1cnc(-c2cc3nccc(Oc4ccc(NC(=O)C5CCN(c6ccccc6)C5=O)cc4F)c3s2)c1` (centres unmarked), the pIC50 on VEGF receptor KDR is over 7.30; in the experiment with DU145 it was over 6.00; in experiment [1], over 7.30; in the experiment with A549 it was over 6.00.
Turning to `CN(C)CCn1cnc(-c2cc3nccc(Oc4ccc(NC(=O)CC(=O)Nc5ccccc5F)cc4F)c3s2)c1`, the pIC50 was over 7.30 at VEGF receptor KDR, over 6.00 in the experiment on DU145, over 7.30 in experiment [1] and over 6.00 in the experiment on A549.
Regarding `Cn1cnc(-c2cc3nccc(Oc4ccc(NC(=O)C5CCN(c6ccc(F)cc6)C5=O)cc4F)c3s2)c1` (centres unmarked), the pIC50 on VEGF receptor KDR was over 7.30; in the experiment on DU145, over 6.00; in experiment [1], over 7.30; in the experiment on A549, over 6.00.
In the case of `CN1CCN(CCN(C)Cc2ccc(-c3cc4nccc(Oc5ccc(NC(=O)CC(=O)Nc6cccc(F)c6)cc5F)c4s3)cc2)CC1`, the pIC50 on VEGF receptor KDR was over 7.30; in the experiment on DU145, 5.30 to 6.00; in experiment [1], 6.60 to 7.30; in the experiment on A549 it was 5.30 to 6.00.
Regarding `CN1CCN(CCN(C)Cc2ccc(-c3cc4nccc(Oc5ccc(NC(=O)CC(=O)Nc6ccc(F)cc6)cc5F)c4s3)cc2)CC1`, the pIC50 was over 7.30 on VEGF receptor KDR, over 6.00 with DU145, over 7.30 in experiment [1] and over 6.00 with A549.
